Biological target: Human Factor D (Homo sapiens (Human), UniProt P00746)
Test: Human Factor D Assay
Type: biochemical
Conditions: Human Factor D, Table 3; read-out: IC50
Summary of the method: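 Thioester cleavage assay: human Factor D (serum-derived, 80 nM final), substrate Z-L-Lys-SBzl with DTNB, both 100 μM final, after 5 min compound preincubation at room temperature.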

Sequence of Human Factor D (P00746 26-253): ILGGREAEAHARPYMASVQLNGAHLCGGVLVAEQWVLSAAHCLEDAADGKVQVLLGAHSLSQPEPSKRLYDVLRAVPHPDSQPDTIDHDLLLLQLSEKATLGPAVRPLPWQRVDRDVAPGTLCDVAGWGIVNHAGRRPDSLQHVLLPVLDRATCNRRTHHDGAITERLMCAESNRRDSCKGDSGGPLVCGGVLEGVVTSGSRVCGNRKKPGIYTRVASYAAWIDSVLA

In the case of `CC(=O)c1nn(CC(=O)N2CC[C@H]2C(=O)Nc2cccc(C)n2)c2ccc(-c3ccc4c(c3)CCC4)cc12` [Compound 573, (S)-1-(2-(3-Acetyl-5-(2,3-dihydro-1H-inden-5-yl)-1H-indazol-1-yl)acetyl)-N-(6-methylpyridin-2-yl)azetidine-2-carboxamide], the IC50 is reported as over 10 µM.
With `CC(=O)c1nn(CC(=O)N2[C@@H]3C[C@@H]3C[C@H]2C(=O)Nc2nc(Br)ccc2CO)c2ccc(-c3cnc(C)nc3)cc12` [Compound 574, (1R,3S,5R)-2-(2-(3-acetyl-5-(2-methylpyrimidin-5-yl)-1H-indazol-1-yl)acetyl)-N-(6-bromo-3-(hydroxymethyl)pyridin-2-yl)-2-azabicyclo[3.1.0] hexane-3-carboxamide] the IC50 was under 1 µM.
`CC(=O)c1nn(CC(=O)N2[C@@H]3C[C@@H]3C[C@H]2C(=O)NC/C(F)=C\c2ccccc2)c2ccc(-c3cnc(C)nc3)cc12` [Compound 575, (1R,3S,5R)-2-(2-(3-Acetyl-5-(2-methylpyrimidin-5-yl)-1H-indazol-1-yl)acetyl)-N-((E)-2-fluoro-3-phenylallyl)-2-azabicyclo[3.1.0]hexane-3-carboxamide] was tested, and the IC50 was under 1 µM.
`CC(=O)c1nn(CC(=O)N2C[C@H](F)C[C@H]2C(=O)Nc2cccc(C3CC3)n2)c2ccc(-c3cnc(C)nc3)cc12` [Compound 576, (2S,4R)-1-(2-(3-Acetyl-5-(2-methylpyrimidin-5-yl)-1H-indazol-1-yl)acetyl)-N-(6-cyclopropylpyridin-2-yl)-4-fluoropyrrolidine-2-carboxamide] showed an IC50 of under 1 µM.
With `COc1cccc(NC(=O)[C@@H]2C[C@@H](F)CN2C(=O)Cn2nc(C(C)=O)c3cc(-c4cnc(C)nc4)ccc32)n1` [Compound 580, (2S,4R)-1-(2-(3-Acetyl-5-(2-methylpyrimidin-5-yl)-1H-indazol-1-yl)acetyl)-4-fluoro-N-(6-methoxypyridin-2-yl)pyrrolidine-2-carboxamide] the IC50 was under 1 µM.
In the case of `CC(=O)c1nn(CC(=O)N2C[C@H](F)C[C@H]2C(=O)Nc2cncc(C(F)(F)F)n2)c2ccc(-c3cnc(C)nc3)cc12` [Compound 581, (2S,4R)-1-(2-(3-Acetyl-5-(2-methylpyrimidin-5-yl)-1H-indazol-1-yl)acetyl)-4-fluoro-N-(6-(trifluoromethyl)pyrazin-2-yl)pyrrolidine-2-carboxamide], the IC50 is reported as under 1 µM.
For `CC(=O)c1nn(CC(=O)N2C[C@H](F)C[C@H]2C(=O)Nc2cccc(OC(F)F)n2)c2ccc(-c3cnc(C)nc3)cc12` [Compound 582, (2S,4R)-1-(2-(3-Acetyl-5-(2-methylpyrimidin-5-yl)-1H-indazol-1-yl)acetyl)-N-(6-(difluoromethoxy)pyridin-2-yl)-4-fluoropyrrolidine-2-carboxamide], the IC50 was under 1 µM.
`CC(=O)c1nn(CC(=O)N2C[C@H](F)C[C@H]2C(=O)Nc2cccc(Br)n2)c2ccc(-c3cnc(F)nc3)cc12` [Compound 583, (2S,4R)-1-(2-(3-Acetyl-5-(2-fluoropyrimidin-5-yl)-1H-indazol-1-yl)acetyl)-N-(6-bromopyridin-2-yl)-4-fluoropyrrolidine-2-carboxamide] was tested, and the IC50 was under 1 µM.
Molecule `CC(=O)c1cccc(NC(=O)[C@@H]2C[C@@H](F)CN2C(=O)Cn2nc(C(C)=O)c3cc(-c4cnc(C)nc4)ccc32)n1` [Compound 584, (2S,4R)-1-(2-(3-Acetyl-5-(2-methylpyrimidin-5-yl)-1H-indazol-1-yl)acetyl)-N-(6-acetylpyridin-2-yl)-4-fluoropyrrolidine-2-carboxamide] has an IC50 of under 1 µM.
In the case of `CC(=O)c1nn(CC(=O)N2CCC[C@H]2C(=O)Nc2cccc(C)n2)c2ccc(-c3ccc4ccccc4c3)cc12` [Compound 585, (S)-1-(2-(3-Acetyl-5-(naphthalen-2-yl)-1H-indazol-1-yl)acetyl)-N-(6-methylpyridin-2-yl)pyrrolidine-2-carboxamide], the IC50 is reported as over 10 µM.
With `CC(=O)c1nn(CC(=O)N2CC[C@H]2C(=O)Nc2cccc(C)n2)c2ccc(-c3ccc4ccccc4c3)cc12` [Compound 587, (S)-1-(2-(3-Acetyl-5-(naphthalen-2-yl)-1H-indazol-1-yl)acetyl)-N-(6-methylpyridin-2-yl)azetidine-2-carboxamide] the IC50 was over 10 µM.
With `CC(=O)c1nn(CC(=O)N2CC[C@H]2C(=O)Nc2cccc(C)n2)c2ccc(-c3ccc(C)nc3)cc12` [Compound 588, (S)-1-(2-(3-Acetyl-5-(6-methylpyridin-3-yl)-1H-indazol-1-yl)acetyl)-N-(6-methylpyridin-2-yl)azetidine-2-carboxamide] the IC50 was over 10 µM.
With `CC(=O)c1nn(CC(=O)N2CCC[C@H]2C(=O)Nc2cccc(C)n2)c2ccc(-c3ccc4cccnc4c3)cc12` [Compound 589, (S)-1-(2-(3-Acetyl-5-(quinolin-7-yl)-1H-indazol-1-yl)acetyl)-N-(6-methylpyridin-2-yl)pyrrolidine-2-carboxamide] the IC50 was under 1 µM.
`CC(=O)c1nn(CC(=O)N2C[C@H](F)C[C@H]2C(=O)Nc2cccc(Br)n2)c2ccc(-c3cnc(OC4CS(=O)(=O)C4)nc3)cc12` [Compound 591, (2S,4R)-1-(2-(3-Acetyl-5-(2-((1,1-dioxidothietan-3-yl)oxy)pyrimidin-5-yl)-1H-indazol-1-yl)acetyl)-N-(6-bromopyridin-2-yl)-4-fluoropyrrolidine-2-carboxamide] gave an IC50 of under 1 µM.
In the case of `CC(=O)c1nn(CC(=O)N2CCCC[C@@H]2C(=O)Nc2cccc(Br)n2)c2ccc(-c3cnc(C)nc3)cc12` [Compound 592, (R)-1-(2-(3-acetyl-5-(2-methylpyrimidin-5-yl)-1H-indazol-1-yl)acetyl)-N-(6-bromopyridin-2-yl)piperidine-2-carboxamide], the IC50 is reported as over 10 µM.
`CC(=O)c1nn(CC(=O)N2CCCC[C@H]2C(=O)Nc2cccc(Br)n2)c2ccc(-c3cnc(C)nc3)cc12` [Compound 593, (S)-1-(2-(3-Acetyl-5-(2-methylpyrimidin-5-yl)-1H-indazol-1-yl)acetyl)-N-(6-bromopyridin-2-yl)piperidine-2-carboxamide] was tested, and the IC50 was under 1 µM.
Molecule `CC(=O)c1cn(CCN2C[C@H](F)C[C@H]2C(=O)Nc2cccc(OC(F)(F)F)c2F)c2ccc(-c3cnc(C)nc3)cc12` [Compound 594, (2S,4R)-1-(2-(3-Acetyl-5-(2-methylpyrimidin-5-yl)-1H-indol-1-yl)ethyl)-4-fluoro-N-(2-fluoro-3-(trifluoromethoxy)phenyl)pyrrolidine-2-carboxamide] has an IC50 of over 10 µM.
`COC(=O)c1ncc(-c2ccc3c(c2)c(C(C)=O)nn3CC(=O)N2C[C@H](F)C[C@H]2C(=O)Nc2cccc(Br)n2)cn1` [Compound 596, methyl 5-(3-Acetyl-1-(2-((2S,4R)-2-((6-bromopyridin-2-yl)carbamoyl)-4-fluoropyrrolidin-1-yl)-2-oxoethyl)-1H-indazol-5-yl)pyrimidine-2-carboxylate] gave an IC50 of under 1 µM.
For `CC(=O)Nc1ncc(-c2ccc3c(c2)c(C(C)=O)nn3CC(=O)N2C[C@H](F)C[C@H]2C(=O)Nc2cccc(Br)n2)cn1` [Compound 597, (2S,4R)-1-(2-(5-(2-Acetamidopyrimidin-5-yl)-3-acetyl-1H-indazol-1-yl)acetyl)-N-(6-bromopyridin-2-yl)-4-fluoropyrrolidine-2-carboxamide], the IC50 was under 1 µM.
`CC(=O)c1nn(CC(=O)N2C[C@H](F)C[C@H]2C(=O)Nc2cccc(Br)n2)c2ccc(-c3cnc(C(=O)O)nc3)cc12` [Compound 598, 5-(3-Acetyl-1-(2-((2S,4R)-2-((6-bromopyridin-2-yl)carbamoyl)-4-fluoropyrrolidin-1-yl)-2-oxoethyl)-1H-indazol-5-yl)pyrimidine-2-carboxylic acid] gave an IC50 of under 1 µM.
